Test results published in paper PMC4007625, “A phase I study of AST1306, a novel irreversible EGFR and HER2 kinase inhibitor, in patients with advanced solid tumors” (Journal of Hematology & Oncology, 2014).

Experiments:
advanced solid tumors = assay: Antitumor activity by RECIST 1.0; type: in vivo, human
Protocol: Antitumor activity was assessed by tumor measurements according to RECIST 1.0 and performed at 8-week intervals. The primary efficacy endpoint was progression free survival (PFS), which was defined as the time from the first administration until disease progression or death. Overall survival (OS) and response rate were also assessed. Clinical benefit rate was measured and defined as the proportion of patients with complete response, partial response and stable disease (SD) ≥ 6 months.

[1] = Food-effect study, two-way crossover, single dose; type: in vivo, human; conditions: for apparent oral clearance (CL/F) / Tmax / AUC(0-inf) / AUC(0-t) / Cmax / half-life: 1000 mg single oral dose; for apparent oral clearance (CL/F) / AUC(0-inf) / AUC(0-t) / Cmax / half-life: geometric mean (range); for Tmax / AUC(0-inf) / AUC(0-t) / Cmax / half-life: plasma, po; for Tmax: (range); for half-life: read-out: t1/2z (converted)
Protocol: Figure S1). On day 1, 6 subjects were fasted and 6 were fed, and all 12 subjects received a single dose of AST1306. […] On “fasting” days (day 1 or 4), subjects were required to fast for a minimum of 2 h prior to dosing, and for at least 1 h post-dosing. […] PK sampling then took place on day 1 and day 4. The PK sampling time points were pre-dose, 0.5, 1, 1.5, 2, 2.5, 3, 4, 6, 8, 12, and 24 hours after dosing. The power model method was used to assess the dose proportionality.

HER2 = system: HER2; set-up: method as in PMID 21789172, PMID 18408761, PMID 15728811, PMID 15737014, PMID 17085664; conditions: preclinical; read-out: IC50 inhibiting HER2; cited from earlier work
clinical = conditions: human, in vivo; for AUC(0-inf): AUC0-∞
Protocol: This was the first-in-human phase I dose-escalation study of AST1306 for patients with advanced solid tumors. AST1306 was orally administered without food for one day followed by two days off to evaluate single dose PK profiles. After that, it was continuously administered for 21 days and two days off to assess multiple dose PK profiles and safety. […] Three times daily in three dose levels (800 mg TID, 1000 mg TID and 1200 mg TID) were explored subsequently. Treatment was then repeated at the same dose level in 28-day cycles until unacceptable toxicities, disease progression or the patient’s withdrew from the study. PK extension study was performed to enroll additional patients up to at least eight patients per dose cohort in three dose levels (MTD, one or two doses level lower than the MTD) for further evaluation of PK profiles.
All PK sampling was performed in the first cycle. Plasma concentrations of AST1306 single-day dosing were determined at the following distinct time points: pre-dose, 0.5 h, 1 h, 1.5 h, 2 h, 3 h, 4 h, 6 h, 8 h, 10 h, 12 h, 24 h, 36 h, and 48 h after the single dose administration in the 400 mg QD and 800 mg QD dose cohorts. For the next five dose cohorts with twice daily (once every 12 hours) administration, the time points of plasma sample collection were as follows: pre-dose, 0.5 h, 1 h, 1.5 h, 2 h, 3 h, 4 h, 6 h, 8 h, and 12 h after the first dose administration, and pre-dose, 1 h, 2 h, 3 h, 4 h, 6 h, 8 h, 12 h, and 24 h after the second dose administration. Three dose cohorts with three times daily (once every 8 hours) administration were further investigated with distinct time points for plasma collecting (pre-dose, 0.5 h, 1 h, 1.5 h, 2 h, 3 h, 4 h, 6 h, and 8 h after the first dose administration; 1 h, 2 h, 3 h, 4 h, 5 h, 6 h, and 8 h after the second dose administration; 1 h, 2 h, 3 h, 4 h, 8 h, 12 h, 24 h, and 36 h after the third dose administration). PK parameters of AST1306 were also determined on days 10, 23 (pre-dose and 2 h after the first dosing), and 24 (steady state, the same time points as the first-day dosing) of continuous treatment. The PK sampling schedule for the PK extension phase was totally the same as that for the dose escalation study.
PK analysis was conducted using Phoenix WinNonlin® software (version 6.1, Pharsight, Mountainview, CA). Standard non-compartmental methods were used to calculate the area under the plasma concentration-time curve over the time interval from 0 to 24 h (AUC0–24,ss), maximum measured concentration of the analyte in plasma (Cmax), and terminal half-life of the analyte in plasma (t1/2). Time from dosing to the maximum concentration of the analyte in plasma (tmax,) was reported as a median value. The concentration at the trough level was determined using the concentration at 24 h (C24) on steady state days.
The power model method was used to assess the dose proportionality. The differences between fed and fasting conditions were assessed by ANOVA, and 90% confidence intervals for ratios were given.

[2] = human, 1000 mg, fed, high-fat breakfast (n =12)

C=CC(=O)Nc1ccc2ncnc(Nc3ccc(OCc4cccc(F)c4)c(Cl)c3)c2c1 [AST1306]
median OS (advanced solid tumors; 12 NSCLC patients): not yet been reached
median PFS (advanced solid tumors; 12 NSCLC patients): 3.6 months
median OS (advanced solid tumors; 17 breast cancer patients): 17.7 (95% CI, 16.1–19.3) months
median PFS (advanced solid tumors; 17 breast cancer patients): 5.5 (95% CI, 3.2–7.9) months
confirmed PR, % of patients (advanced solid tumors; 55 evaluable patients): 12.7%
confirmed partial responses, patients (advanced solid tumors; 55 evaluable patients): 7
stable disease ≥ 6 months, patients (advanced solid tumors; 55 evaluable patients): 7
confirmed PR, patients (advanced solid tumors; NSCLC, 12 evaluable): 1
confirmed PR, patients (advanced solid tumors; breast cancer, 17 evaluable, all responders HER2 positive): 5
confirmed PR, patients (advanced solid tumors; gastric cancer): 1
apparent oral clearance (CL/F) ([1]; fasted (n =12)): 3970 (1370-8890) L/h
apparent oral clearance (CL/F) ([1]; fed, high-fat breakfast (n =12)): 1360 (608-2340) L/h
Treatment ratio fed/fasted, AUC0-∞ ([1]; human, in vivo, 1000 mg): 269 (208-348) %
Treatment ratio fed/fasted, AUC0–t ([1]; human, in vivo, 1000 mg): 284 (219-368) %
Treatment ratio fed/fasted, Cmax ([1]; human, in vivo, 1000 mg): 228 (170-305) %
Tmax ([1]; human, 1000 mg, fasted (n =12)): 2.38 h
AUC(0-inf) ([1]; human, 1000 mg, fasted (n =12)): 331 ng·h/mL
AUC(0-t) ([1]; human, 1000 mg, fasted (n =12)): 311 ng·h/mL
Cmax ([1]; human, 1000 mg, fasted (n =12)): 70.3 ng/mL
half-life ([1]; human, 1000 mg, fasted (n =12)): 6.99 h
Tmax [1, 2]: 4.25 h
AUC(0-inf) [1, 2]: 814 ng·h/mL
AUC(0-t) [1, 2]: 797 ng·h/mL
Cmax [1, 2]: 139 ng/mL
half-life [1, 2]: 4.19 h
IC50 (HER2): 3 nM
Tmax (clinical): 2.65 (43.8) h
multiple-dose vs single-dose exposure (mean accumulation ratio R, AUCss day 23–24 / AUC0-24h day 1) (clinical): no more than 3 fold
t1/2z (clinical): 5.56 (51.6) h
AUC0-24 h (clinical; 400 mg): 116 ng·h/mL
AUC0-∞ (clinical; 400 mg): 119 ng·h/mL
AUC(0-t) (clinical; 400 mg): 116 ng·h/mL
Cmax (clinical; 400 mg): 22.6 ng/mL
R_AUC (accumulation ratio, AUCss days 23–24 / AUC0-24h day 1) (clinical; 400 mg): 2.81
Tmax (clinical; 400 mg): 2.00 h
t1/2z (clinical; 400 mg): 4.66 h
λz (clinical; 400 mg): 0.149 h⁻¹
Cmax3 (clinical; 600 mg): 64.5 (69.4) ng/mL
Cmax (clinical; 800 mg): 50.0 (16.0) ng/mL
Cmax2 (clinical; 800 mg): 74.3 (20.4) ng/mL
Cmax (clinical; 800 mg, Cmax): 67.7 ng/mL
AUC0-24 h (clinical; 1000 mg): 696 (57.6) h*ng/mL
AUC0-∞ (clinical; 1000 mg): 792 (54.1) h*ng/mL
AUC(0-t) (clinical; 1000 mg): 781 (54.7) h*ng/mL
Cmax (clinical; 1000 mg): 75.0 (52.1) ng/mL
Cmax3 (clinical; 1000 mg): 89.7 (42.1) ng/mL
AUC(0-t) (clinical; 1000 mg, AUC0-24 h): 1130 ng·h/mL
AUC(0-t) (clinical; 1000 mg, AUC0-t): 1420 ng·h/mL
AUC(0-inf) (clinical; 1000 mg): 1430 ng·h/mL
Cmax (clinical; 1000 mg, Cmax): 47.3 ng/mL
Cmax (clinical; 1200 mg): 50.9 (70.6) ng/mL
Cmax3 (clinical; 1200 mg): 210.0 (81.5) ng/mL
Cmax (clinical; 1200 mg, Cmax): 61.9 ng/mL
Cmax2 (clinical; 1500 mg): 103.0 (25.8) ng/mL
R_AUC (accumulation ratio, AUCss days 23–24 / AUC0-24h day 1) (clinical; 1500 mg): 0.87 (32.0)
Tmax (clinical; 1500 mg): 1.92 (30.5) h
t1/2z (clinical; 1500 mg): 3.48 (12.8) h
λz (clinical; 1500 mg): 0.202 (13.3) 1/h
AUC(0-t) (clinical; 1500 mg, AUC0-24 h): 997 ng·h/mL
AUC(0-t) (clinical; 1500 mg, AUC0-t): 1190 ng·h/mL
AUC(0-inf) (clinical; 1500 mg): 1200 ng·h/mL
Cmax (clinical; 1500 mg, Cmax): 57.1 ng/mL
half-life (clinical; gMean terminal half-life): 3.33 to 7.57 h
time to Cmax after oral administration (clinical; po): 1.83 to 3.67 h
half-life (clinical; t1/2): 3 to 5 h
half-life (clinical; terminal half-life): 3.48 to 5.56 h
